Test system: 958667-338-R-J2-PDC tumor spheroids viability
Assay: Anticancer human tumor 958667-338-R-J2-PDC patient-derived colon adenocarcinoma cell line growth inhibition [PI3K]
Conditions: spheroids with HUVEC and MSC; for viability, T/C: stronger effect = lower value
Procedure, shortened: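 Targeted small molecules plus PI3K inhibitors, half-log dose series from Cmax (default top 10 microM), were applied to heterotypic spheroids of cancer cells with HUVEC and MSCs. Viability indicated growth inhibition.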

[1] = curve of first compound, second compound 0.00316 µM
[2] = curve of first compound, second compound 0.01 µM
[3] = curve of first compound, second compound 0.0316 µM
[4] = curve of first compound, second compound 0.1 µM
[5] = curve of first compound, second compound 0.316 µM
[6] = curve of first compound, second compound 1 µM
[7] = second compound 0.00316 µM, first compound 0.0316 µM
[8] = second compound 0.00316 µM, first compound 0.1 µM
[9] = second compound 0.00316 µM, first compound 0.316 µM
[10] = second compound 0.00316 µM, first compound 1 µM
[11] = second compound 0.00316 µM, first compound 3.16 µM
[12] = second compound 0.00316 µM, first compound 10 µM
[13] = second compound 0.01 µM, first compound 0.0316 µM
[14] = second compound 0.01 µM, first compound 0.1 µM
[15] = second compound 0.01 µM, first compound 0.316 µM
[16] = second compound 0.01 µM, first compound 1 µM
[17] = second compound 0.01 µM, first compound 3.16 µM
[18] = second compound 0.01 µM, first compound 10 µM
[19] = second compound 0.0316 µM, first compound 0.0316 µM
[20] = second compound 0.0316 µM, first compound 0.1 µM
[21] = second compound 0.0316 µM, first compound 0.316 µM
[22] = second compound 0.0316 µM, first compound 1 µM
[23] = second compound 0.0316 µM, first compound 3.16 µM
[24] = second compound 0.0316 µM, first compound 10 µM
[25] = second compound 0.1 µM, first compound 0.0316 µM
[26] = second compound 0.1 µM, first compound 0.1 µM
[27] = second compound 0.1 µM, first compound 0.316 µM
[28] = second compound 0.1 µM, first compound 1 µM
[29] = second compound 0.1 µM, first compound 3.16 µM
[30] = second compound 0.1 µM, first compound 10 µM
[31] = second compound 0.316 µM, first compound 0.0316 µM
[32] = second compound 0.316 µM, first compound 0.1 µM
[33] = second compound 0.316 µM, first compound 0.316 µM
[34] = second compound 0.316 µM, first compound 1 µM
[35] = second compound 0.316 µM, first compound 3.16 µM
[36] = second compound 0.316 µM, first compound 10 µM
[37] = second compound 1 µM, first compound 0.0316 µM
[38] = second compound 1 µM, first compound 0.1 µM
[39] = second compound 1 µM, first compound 0.316 µM
[40] = second compound 1 µM, first compound 1 µM
[41] = second compound 1 µM, first compound 3.16 µM
[42] = second compound 1 µM, first compound 10 µM
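Also: spheroids exposed to compounds for seven days before readout.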

CC1(C)CCC(CN2CCN(c3ccc(C(=O)NS(=O)(=O)c4ccc(NCC5CCOCC5)c([N+](=O)[O-])c4)c(Oc4cnc5[nH]ccc5c4)c3)CC2)=C(c2ccc(Cl)cc2)C1 + COc1c(OCCCN2CCOCC2)ccc2c3n(c(=NC(=O)c4cnc(N)nc4)nc12)CCN3
IC50 [1]: 6.52 µM | IC50 [2]: 5.73 µM | IC50 [3]: 5.21 µM | IC50 [4]: 3.76 µM | IC50 [5]: < 0.0316 µM | IC50 [6]: < 0.0316 µM | viability, T/C [7]: 76.5% | viability, T/C [8]: 96.3% | viability, T/C [9]: 80.3% | viability, T/C [10]: 98.8% | viability, T/C [11]: 103% | viability, T/C [12]: 25.6% | viability, T/C [13]: 71.8% | viability, T/C [14]: 85.9% | viability, T/C [15]: 72.5% | viability, T/C [16]: 76.6% | viability, T/C [17]: 75.8% | viability, T/C [18]: 25.9% | viability, T/C [19]: 77.6% | viability, T/C [20]: 66.2% | viability, T/C [21]: 61.6% | viability, T/C [22]: 69% | viability, T/C [23]: 80.6% | viability, T/C [24]: 22.6% | viability, T/C [25]: 58% | viability, T/C [26]: 53.4% | viability, T/C [27]: 48.8% | viability, T/C [28]: 53.9% | viability, T/C [29]: 69.6% | viability, T/C [30]: 11.9% | viability, T/C [31]: 45.8% | viability, T/C [32]: 42.3% | viability, T/C [33]: 33.9% | viability, T/C [34]: 33.5% | viability, T/C [35]: 32.5% | viability, T/C [36]: 4.13% | viability, T/C [37]: 19.7% | viability, T/C [38]: 15.1% | viability, T/C [39]: 19% | viability, T/C [40]: 21.9% | viability, T/C [41]: 18.2% | viability, T/C [42]: 2.25%

CC(Cn1ccc(-c2ccc(C#N)c(Cl)c2)n1)NC(=O)c1cc(C(C)O)[nH]n1 (stereo not drawn)
viability, T/C (compound 0.0316 µM): 105% [middle of 4 runs] | viability, T/C (compound 0.1 µM): 92.6% [middle of 4 runs] | viability, T/C (compound 0.316 µM): 111% [middle of 4 runs] | viability, T/C (compound 1 µM): 104% [middle of 4 runs] | viability, T/C (compound 3.16 µM): 107% [middle of 4 runs] | viability, T/C (compound 10 µM): 89.4% [middle of 4 runs] | IC50 (curve of compound): > 10 µM

Cn1nccc1Nc1nccc(-c2ccn(C(CO)c3ccc(Cl)c(F)c3)c(=O)c2)n1 (stereo not drawn) + COc1c(OCCCN2CCOCC2)ccc2c3n(c(=NC(=O)c4cnc(N)nc4)nc12)CCN3
IC50 [1]: 9.71 µM | IC50 [2]: 7.7 µM | IC50 [3]: 2.72 µM | IC50 [4]: 1.27 µM | IC50 [5]: < 0.0316 µM | IC50 [6]: < 0.0316 µM | viability, T/C [7]: 93.8% | viability, T/C [8]: 98.4% | viability, T/C [9]: 97.9% | viability, T/C [10]: 83.5% | viability, T/C [11]: 67.1% | viability, T/C [12]: 49.3% | viability, T/C [13]: 98.6% | viability, T/C [14]: 100% | viability, T/C [15]: 99.1% | viability, T/C [16]: 83.3% | viability, T/C [17]: 81.6% | viability, T/C [18]: 41.2% | viability, T/C [19]: 80.3% | viability, T/C [20]: 86.7% | viability, T/C [21]: 83.1% | viability, T/C [22]: 57.1% | viability, T/C [23]: 52.3% | viability, T/C [24]: 25.6% | viability, T/C [25]: 58.6% | viability, T/C [26]: 55.4% | viability, T/C [27]: 60% | viability, T/C [28]: 55.6% | viability, T/C [29]: 27.7% | viability, T/C [30]: 12% | viability, T/C [31]: 30.9% | viability, T/C [32]: 42.4% | viability, T/C [33]: 28.8% | viability, T/C [34]: 31.9% | viability, T/C [35]: 15.4% | viability, T/C [36]: 1.75% | viability, T/C [37]: 16.9% | viability, T/C [38]: 13.1% | viability, T/C [39]: 18.1% | viability, T/C [40]: 13.6% | viability, T/C [41]: 3.23% | viability, T/C [42]: 1.67%

CC(Cn1ccc(-c2ccc(C#N)c(Cl)c2)n1)NC(=O)c1cc(C(C)O)[nH]n1 (stereo not drawn) + CC(Nc1ccc2c(c1)OCCn1cc(N3C(=O)OCC3C(F)F)nc1-2)C(N)=O
IC50 [1]: > 10 µM | IC50 [2]: > 10 µM | IC50 [3]: > 10 µM | IC50 [4]: > 10 µM | IC50 [5]: > 10 µM | IC50 [6]: > 10 µM | viability, T/C [7]: 118% | viability, T/C [8]: 111% | viability, T/C [9]: 126% | viability, T/C [10]: 117% | viability, T/C [11]: 84.7% | viability, T/C [12]: 99.2% | viability, T/C [13]: 92.7% | viability, T/C [14]: 106% | viability, T/C [15]: 77.4% | viability, T/C [16]: 91.4% | viability, T/C [17]: 90.6% | viability, T/C [18]: 90.5% | viability, T/C [19]: 89.8% | viability, T/C [20]: 99.9% | viability, T/C [21]: 97.8% | viability, T/C [22]: 93% | viability, T/C [23]: 95% | viability, T/C [24]: 75.2% | viability, T/C [25]: 111% | viability, T/C [26]: 88.9% | viability, T/C [27]: 81.1% | viability, T/C [28]: 78.6% | viability, T/C [29]: 91.1% | viability, T/C [30]: 82.4% | viability, T/C [31]: 80% | viability, T/C [32]: 49.7% | viability, T/C [33]: 84.5% | viability, T/C [34]: 63.6% | viability, T/C [35]: 63.7% | viability, T/C [36]: 78.8% | viability, T/C [37]: 64.2% | viability, T/C [38]: 61.2% | viability, T/C [39]: 66.1% | viability, T/C [40]: 62.8% | viability, T/C [41]: 55.7% | viability, T/C [42]: 49.8%

From PubChem BioAssay AID1963963 (Molecular Pharmacology Branch, DTP, NCI, 2024)
